Measured values reported in patent publication US6822100B2 (Bristol-Myers Squibb Company, priority 2001, dated 2004).

Assays:
[1] = biological target: T1, human serotonin transporters (Homo sapiens, UniProt P31645); assay: Serotonin Transporter Binding Assay; settings: HEK-hSERT cell membranes, 1 nM [3H]-citalopram, Cheng and Prusoff; read-out: SERT Ki
T1 construct: expressed in transfected cells; host or cells: HEK-293 (HEK-hSERT), membrane homogenates
Method: HEK-293 cells that stably express human serotonin transporters (HEK-hSERT cells) were grown at 37° C. in 5% CO2 as a monolayer in medium consisting of EMEM supplemented with 10% fetal bovine serum and G418 sulfate (500 μg/ml). To prepare membranes for radioligand binding experiments, cells were rinsed twice with phosphate-buffered saline (138 mM NaCl, 4.1 mM KCl, 5.1 mM Na2PO4, 1.5 mM […], 11.1 mM glucose, pH 7.4). Cells were transferred from plates to polypropylene tubes (16×100 mm), centrifuged at 1,200×g for 5 min and were frozen at −80° C. until assay. Following centrifugation, pellets were resuspended by homogenization in buffer consisting of 50 mM Tris (pH 7.7 at 25° C.), 120 mM NaCl and 5 mM KCl and then centrifuged at 32,000×g for 10 min. Following centrifugation, supernatants were discarded and pellets were resuspended in buffer consisting of 50 mM Tris (pH 7.4 at 25° C.), 150 mM NaCl and 5 mM KCl. Membrane homogenates (200 μl/plate) were incubated with 1 nM [^3H]-citalopram (specific activity=85 Ci/mmol) and increasing concentrations of test compounds for 1 hr at 25° C. in a total volume of 250 μl. The assay buffer consisted of 50 mM Tris (pH 7.4 at 25° C.), 120 mM NaCl and 5 mM KCl (pH 7.4 with conc. HCl). Plates were incubated for 1 hr at 25° C., then filtered through 0.5% PEI treated Whatman GF/B filters using a Brandel cell harvester. Filters were washed three times with 3 ml of ice-cold tris wash buffer. Non-specific binding was defined with 10 μM fluoxetine. Amount of radioligand bound in the presence and absence of competitor was analyzed by plotting (−)log drug concentration versus the amount of radioligand specifically bound. The midpoint of the displacement curve (IC50, nM), signifies the potency. Ki values were calculated using the method of Cheng and Prusoff (1973).

[2] = biological target: T2, recombinant human dopamine D2L receptors (Homo sapiens, UniProt P14416); assay: Dopamine Binding Assay; settings: HEK-D2L cell membranes, 150 pM [3H]-spiperone, Cheng and Prusoff
T2 construct: expressed in transfected cells; host or cells: HEK-293 (HEK-D2L), membrane homogenates
T2 sequence (P14416 whole entry): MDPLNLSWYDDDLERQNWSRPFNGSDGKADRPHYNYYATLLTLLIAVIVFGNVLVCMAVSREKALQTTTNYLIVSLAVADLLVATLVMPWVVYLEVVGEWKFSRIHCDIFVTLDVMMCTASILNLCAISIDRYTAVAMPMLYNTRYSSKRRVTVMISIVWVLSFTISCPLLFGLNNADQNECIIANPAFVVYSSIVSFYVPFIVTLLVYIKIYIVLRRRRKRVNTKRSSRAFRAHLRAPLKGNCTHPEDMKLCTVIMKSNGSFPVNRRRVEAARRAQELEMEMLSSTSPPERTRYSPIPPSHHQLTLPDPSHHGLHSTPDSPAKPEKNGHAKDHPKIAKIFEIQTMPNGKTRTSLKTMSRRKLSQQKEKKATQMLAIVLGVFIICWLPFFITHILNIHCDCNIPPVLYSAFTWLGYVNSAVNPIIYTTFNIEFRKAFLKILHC
Method: HEK-293 cells that stably express recombinant human dopamine D2L receptors (HEK-D2L cells) were grown at 37° C. in 5% CO2 as a monolayer in medium consisting of EMEM supplemented with 10% fetal bovine serum and G418 sulfate (500 μg/ml). To prepare membranes for radioligand binding experiments, cells were rinsed twice with phosphate-buffered saline (138 mM NaCl, 4.1 mM KCl, 5.1 mM Na2PO4, 1.5 mM KH2PO2 11.1 mM glucose, pH 7.4), and incubated for 5-10 min. at 4° C. in hypotonic lysis buffer consisting of 10 mM Tris (pH 7.4) and 5 mM EDTA. Cells were transferred from plates to polypropylene tubes (16×100 mm), homogenized and centrifuged at 32,000×g for 20 min. Following centrifugation, pellets were resuspended by homogenization in buffer consisting of 50 mM Tris (pH 7.7 at 25° C.) and 1 mM EDTA. Homogenates were stored at −80° C. until needed. On the day of an experiment, homogenates were thawed then centrifuged at 32,000×g for 20 min. Following centrifugation, supernatants were discarded and pellets were resuspended in assay buffer consisting of 50 mM Tris (pH 7.4 at 25° C.), 1 mM EDTA and 6 mM MgCl2. Membrane homogenates (˜5 μg) were incubated with 150 pM [^3H]-spiperone (Amersham Life Science) and increasing concentrations of test compounds for 1.5 hr at 22° C. in a total volume of 400 μl. Reactions were stopped by addition of ice-cold assay buffer and filtration over glass fiber filters (Whatman GFB, pre-soaked in 0.05% polyethylenimine) using a microtitre format Brandel cell harvester. Filters were washed with 3 ml of ice-cold assay buffer. Non-specific binding was defined with 2 μM (+)butaclamol. Ki values were calculated using the method of Cheng and Prusoff (1973). Protein concentrations were determined by the method of Bradford (1976) with BSA as a standard.

T1 sequence (P31645 whole entry): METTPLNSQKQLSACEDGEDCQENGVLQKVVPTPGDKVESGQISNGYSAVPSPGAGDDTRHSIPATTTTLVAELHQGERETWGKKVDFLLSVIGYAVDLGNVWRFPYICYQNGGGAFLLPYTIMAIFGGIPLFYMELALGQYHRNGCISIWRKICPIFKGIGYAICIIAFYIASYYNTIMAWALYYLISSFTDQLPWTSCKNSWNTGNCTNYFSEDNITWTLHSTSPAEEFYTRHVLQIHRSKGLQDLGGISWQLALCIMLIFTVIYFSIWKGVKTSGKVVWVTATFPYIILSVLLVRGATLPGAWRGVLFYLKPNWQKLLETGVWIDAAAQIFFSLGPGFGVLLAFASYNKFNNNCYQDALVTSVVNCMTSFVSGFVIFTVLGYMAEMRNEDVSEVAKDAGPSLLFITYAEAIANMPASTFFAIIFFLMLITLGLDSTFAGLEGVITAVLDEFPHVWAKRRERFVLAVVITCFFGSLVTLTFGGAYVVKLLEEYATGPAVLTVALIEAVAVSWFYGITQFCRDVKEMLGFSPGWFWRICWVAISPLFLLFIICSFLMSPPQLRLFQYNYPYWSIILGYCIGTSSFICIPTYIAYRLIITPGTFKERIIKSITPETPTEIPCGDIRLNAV

SMILES	Ki [1]	Ki [2]
COc1ccccc1CNC[C@@H]1C[C@H]1c1c[nH]c2ccc(C#N)cc12 (relative stereo) [Example 8, trans-2-[5-Cyanoindol-3-yl]-1-[N-(2-methoxybenzyl)aminomethyl]-cyclopropane]	1 to 10 nM	100 to 1000 nM
COc1cccc(CNC[C@@H]2C[C@H]2c2c[nH]c3ccc(C#N)cc23)c1 (relative stereo) [Example 9, trans-2-[5-Cyanoindol-3-yl]-1-[N-(3-methoxybenzyl)aminomethyl]-cyclopropane]	1 to 10 nM	100 to 1000 nM
COc1ccc(CNC[C@@H]2C[C@H]2c2c[nH]c3ccc(C#N)cc23)cc1 (relative stereo) [Example 10, trans-2-[5-Cyanoindol-3-yl]-1-[N-(4-methoxybenzyl)amnomethyl]-cyclopropane]	1 to 10 nM	100 to 1000 nM
N#Cc1ccc2[nH]cc([C@@H]3C[C@H]3CNCc3ccccc3F)c2c1 (relative stereo) [Example 11, trans-2-[5-Cyanoindol-3-yl]-1-[N-(2-fluorobenzyl)aminomethyl]-cyclopropane]	1 to 10 nM	100 to 1000 nM
N#Cc1ccc2[nH]cc([C@@H]3C[C@H]3CNCCc3ccccc3F)c2c1 (relative stereo) [Example 17, trans-2-[5-Cyanoindol-3-yl]-1-[N-2-(2-fluorophenyl)ethylaminomethyl]-cyclopropane]	1 to 10 nM	10 to 100 nM
N#Cc1ccc2[nH]cc([C@@H]3C[C@H]3CNCCc3cccc(F)c3)c2c1 (relative stereo) [Example 18, trans-2-[5-Cyanoindol-3-yl]-1-[N-2-(3-fluorophenyl)ethylaminomethyl]-cyclopropane]	1 to 10 nM	10 to 100 nM
N#Cc1ccc2[nH]cc([C@@H]3C[C@H]3CNCCc3ccc(F)cc3)c2c1 (relative stereo) [Example 19, trans-2-[5-Cyanoindol-3-yl]-1-[N-2-(4-fluorophenyl)ethylaminomethyl]-cyclopropane]	1 to 10 nM	10 to 100 nM
N#Cc1ccc2[nH]cc([C@@H]3C[C@H]3CNCCc3cccnc3)c2c1 (relative stereo) [Example 20, trans-2-[5-Cyanoindol-3-yl]-1-[N-2-(3-pyridyl)ethylaminomethyl]-cyclopropane]	1 to 10 nM	> 1000 nM
N#Cc1ccc2[nH]cc([C@@H]3C[C@H]3CNCCc3c[nH]cn3)c2c1 (relative stereo) [Example 23, trans-2-[5-Cyanoindol-3-yl]-1-[N-2-(4-imidazolyl)ethylaminomethyl]-cyclopropane]	10 to 100 nM	10 to 100 nM
N#Cc1ccc2[nH]cc([C@@H]3C[C@H]3CNCCc3cccs3)c2c1 (relative stereo) [Example 25]	1 to 10 nM	100 to 1000 nM
N#Cc1ccc2[nH]cc([C@@H]3C[C@H]3CNCCc3c[nH]c4ccccc34)c2c1 (relative stereo) [Example 27, trans-2-[5-Cyanoindol-3-yl]-1-[N-2-(3-indolyl)ethylaminomethyl]-cyclopropane]	1 to 10 nM	10 to 100 nM
N#Cc1ccc2[nH]cc([C@@H]3C[C@H]3CNC3CCCCC3)c2c1 (relative stereo) [Example 29, trans-2-[5-Cyanoindol-3-yl]-1-[N-cyclohexylaminomethyl]-cyclopropane]	10 to 100 nM	10 to 100 nM
N#Cc1ccc2[nH]cc([C@@H]3C[C@H]3CN3CCc4ccccc4C3)c2c1 (relative stereo) [Example 37, trans-2-[5-Cyanoindol-3-yl]-1-[1,2,3,4-tetrahydro-1H-isoquinolin-2-yl-methyl]-cyclopropane]	10 to 100 nM	10 to 100 nM
CN(CCc1ccccc1)C[C@@H]1C[C@H]1c1c[nH]c2ccc(C#N)cc12 (relative stereo) [Example 39, trans-2-[5-Cyanoindol-3-yl]-1-[N,N-methyl-phenylethylaminomethyl]-cyclopropane]	1 to 10 nM	10 to 100 nM
N#Cc1ccc2[nH]cc([C@@H]3C[C@H]3CNCCc3ccccc3)c2c1 (relative stereo) [Example 40]	1 to 10 nM	10 to 100 nM
COc1ccccc1CCNC[C@@H]1C[C@H]1c1c[nH]c2ccc(C#N)cc12 (relative stereo) [Example 41]	1 to 10 nM	10 to 100 nM
COc1cccc(CCNC[C@@H]2C[C@H]2c2c[nH]c3ccc(C#N)cc23)c1 (relative stereo) [Example 42]	1 to 10 nM	10 to 100 nM
COc1ccc(CCNC[C@@H]2C[C@H]2c2c[nH]c3ccc(C#N)cc23)cc1 (relative stereo) [Example 43]	1 to 10 nM	10 to 100 nM
N#Cc1ccc2[nH]cc([C@@H]3C[C@H]3CNCCOc3ccccc3)c2c1 (relative stereo) [Example 44]	1 to 10 nM	1 to 10 nM
CCCNC[C@@H]1C[C@H]1c1c[nH]c2ccc(C#N)cc12 (relative stereo) [Example 45]	10 to 100 nM	100 to 1000 nM
CCN(CC)C[C@@H]1C[C@H]1c1c[nH]c2ccc(C#N)cc12 (relative stereo) [Example 48]	1 to 10 nM	100 to 1000 nM
Fc1ccc2[nH]cc([C@@H]3C[C@H]3CNCc3ccccc3)c2c1 (relative stereo) [Example 49, trans-1-(N-Benzlyaminomethyl)-2-[5-fluoroindol-3-yl]-cyclopropane]	10 to 100 nM	100 to 1000 nM
Fc1ccc2[nH]cc([C@@H]3C[C@H]3CN3CCc4ccccc4C3)c2c1 (relative stereo) [Example 76, trans-1-[1,2,3,4-tetrahydro-1H-isoquinolin-2-yl-methyl]-2-[5-fluoroindol-3-yl]-cyclopropane]	10 to 100 nM	10 to 100 nM
CN(CCc1ccccc1)C[C@@H]1C[C@H]1c1c[nH]c2ccc(F)cc12 (relative stereo) [Example 78, trans-2-[5-Fluoroindol-3-yl]-1-[N,N-methyl-phenylethylaminomethyl]-cyclopropane]	1 to 10 nM	100 to 1000 nM
COc1ccccc1CCNC[C@@H]1C[C@H]1c1c[nH]c2ccc(F)cc12 (relative stereo) [Example 80]	10 to 100 nM	10 to 100 nM
COc1cccc(CCNC[C@@H]2C[C@H]2c2c[nH]c3ccc(F)cc23)c1 (relative stereo) [Example 81]	10 to 100 nM	10 to 100 nM
COc1ccc(CCNC[C@@H]2C[C@H]2c2c[nH]c3ccc(F)cc23)cc1 (relative stereo) [Example 82]	10 to 100 nM	10 to 100 nM
Fc1ccc2[nH]cc([C@@H]3C[C@H]3CNCCOc3ccccc3)c2c1 (relative stereo) [Example 83]	1 to 10 nM	1 to 10 nM
CCN(CC)C[C@@H]1C[C@H]1c1c[nH]c2ccc(F)cc12 (relative stereo) [Example 86]	10 to 100 nM	100 to 1000 nM
CCOC(=O)NCCN(C)C[C@@H]1C[C@H]1c1c[nH]c2ccc(C#N)cc12 (relative stereo) [Example 87, trans-2-[5-Cyanoindol-3-yl]-1-[N,N-methyl-2-amino(ethylcarbamoyl)ethylaminomethyl]-cyclopropane]	10 to 100 nM	100 to 1000 nM
